Test results reported in ChEMBL document CHEMBL1641389, “Penasins A-E, long-chain cytotoxic sphingoid bases, from a marine sponge Penares sp” (J Nat Prod, 2010).
In brackets after ≈: the same amount, converted by molar mass.

Assays:
P388 = test: Cytotoxicity against mouse P388 cells after 96 hrs by MTT assay; assay type: functional, cell-based; conditions: P388, 96 h
HeLa = test: Cytotoxicity against human HeLa cells after 96 hrs by MTT assay; assay type: functional, cell-based

Row | SMILES | IC50 (P388) [µg/mL] | IC50 (HeLa) [µg/mL]
1 | CCCCCCCCCCCCCCCC/C=C(\Cl)CC/C=C\CCCC[C@@H]1OC[C@H](N)[C@@H]1O [PENASIN B] | 50 (≈ 100 µM) | 10 (≈ 20.1 µM)
2 | CCCCCCCCCCCCCCCC/C=C\CC/C=C\CCCC[C@@H]1OC[C@H](N)[C@@H]1O [PENASIN] | 50 (≈ 108 µM) | 10 (≈ 21.6 µM)
